Consider two compounds from article PMC10213791 (Acta Pharmaceutica Sinica. B, 2022).

Molecules are shown by their SMILES.

The target of experiment [1] is T1, eukaryotic translation elongation factor 1 alpha 1 (eEF1A1) (Homo sapiens, UniProt P68104).
T1 sequence (P68104 2-462): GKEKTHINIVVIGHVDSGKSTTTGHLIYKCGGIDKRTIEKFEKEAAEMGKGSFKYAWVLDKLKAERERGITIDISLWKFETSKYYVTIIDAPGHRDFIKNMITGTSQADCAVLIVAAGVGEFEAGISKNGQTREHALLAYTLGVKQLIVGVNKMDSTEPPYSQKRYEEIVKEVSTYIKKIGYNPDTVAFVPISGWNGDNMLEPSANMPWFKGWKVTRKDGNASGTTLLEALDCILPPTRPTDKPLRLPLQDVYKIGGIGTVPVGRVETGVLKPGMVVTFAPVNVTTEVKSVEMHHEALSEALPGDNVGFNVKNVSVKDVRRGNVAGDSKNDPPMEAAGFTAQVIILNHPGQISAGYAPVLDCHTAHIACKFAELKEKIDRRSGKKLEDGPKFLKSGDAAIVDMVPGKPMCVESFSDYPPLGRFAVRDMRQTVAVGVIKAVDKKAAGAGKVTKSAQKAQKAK
As to the kind of experiment: SPR. The format is binding.

Experiment [2] deals with T2, vacuolar protein sorting 4 homolog B (VPS4B) (Homo sapiens, UniProt O75351).
T2 sequence (O75351 1-444): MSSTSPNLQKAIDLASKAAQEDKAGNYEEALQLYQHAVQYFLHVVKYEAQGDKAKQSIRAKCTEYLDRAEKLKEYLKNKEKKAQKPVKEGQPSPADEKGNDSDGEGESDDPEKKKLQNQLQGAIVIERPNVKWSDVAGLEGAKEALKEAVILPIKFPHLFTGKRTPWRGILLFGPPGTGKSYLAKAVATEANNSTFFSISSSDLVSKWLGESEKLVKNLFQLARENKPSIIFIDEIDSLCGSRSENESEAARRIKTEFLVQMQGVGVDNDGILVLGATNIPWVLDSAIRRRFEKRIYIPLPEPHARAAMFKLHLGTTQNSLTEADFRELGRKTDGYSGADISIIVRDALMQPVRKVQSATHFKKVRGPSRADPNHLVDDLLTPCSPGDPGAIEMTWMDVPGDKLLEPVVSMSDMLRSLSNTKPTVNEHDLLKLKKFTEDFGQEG
Briefly: SPR. The format is binding.

The target in experiment [3] is T3, peroxiredoxin 3 (PRDX3) (Homo sapiens, UniProt P30048).
T3 sequence (P30048 62-256): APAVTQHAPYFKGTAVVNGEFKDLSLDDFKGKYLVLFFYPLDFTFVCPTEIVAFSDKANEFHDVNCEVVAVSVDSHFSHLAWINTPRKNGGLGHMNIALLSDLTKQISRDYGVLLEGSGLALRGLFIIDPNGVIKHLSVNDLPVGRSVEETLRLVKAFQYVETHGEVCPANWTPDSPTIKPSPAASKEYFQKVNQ
As to the kind of experiment: SPR. The format is binding.

Experiment [4] addresses EIF2AK2 (Homo sapiens, UniProt P19525). Briefly: biochemical.

Sequence of EIF2AK2 (P19525 2-551): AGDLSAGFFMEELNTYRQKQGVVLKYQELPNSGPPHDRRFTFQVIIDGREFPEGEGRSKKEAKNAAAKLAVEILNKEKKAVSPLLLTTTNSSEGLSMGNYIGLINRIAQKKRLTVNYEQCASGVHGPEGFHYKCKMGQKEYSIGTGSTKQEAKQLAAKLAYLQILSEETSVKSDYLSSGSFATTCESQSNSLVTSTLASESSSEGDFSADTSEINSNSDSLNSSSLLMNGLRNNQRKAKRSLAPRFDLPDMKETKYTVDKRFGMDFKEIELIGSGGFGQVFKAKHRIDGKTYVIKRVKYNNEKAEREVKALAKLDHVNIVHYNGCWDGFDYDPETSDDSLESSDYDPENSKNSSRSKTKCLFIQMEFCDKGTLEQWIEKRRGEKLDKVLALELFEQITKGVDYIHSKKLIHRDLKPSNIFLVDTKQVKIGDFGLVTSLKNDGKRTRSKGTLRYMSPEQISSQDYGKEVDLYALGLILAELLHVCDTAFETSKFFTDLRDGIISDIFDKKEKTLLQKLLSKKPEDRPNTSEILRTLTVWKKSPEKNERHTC

With `COc1ccc2cc3[n+](cc2c1OC)CCc1cc2c(cc1-3)OCO2` [BBR, berberine], the dissociation constant (Kd) in experiment [1] turned out to be 13.4 µM; in experiment [2], 16.8 µM; in experiment [3] it was 23.7 µM.
As to `O=C1Nc2ccc3ncsc3c2/C1=C/c1c[nH]cn1` [C16], in experiment [4], 1.01 µM corresponded to half-maximal inhibition (IC50).

For orientation: Kd means the concentration at which binding is half-saturated. A lower Kd goes with tighter binding. Usually IC50 stands for the concentration that gives 50% inhibition.
